Experimental data published in patent US12692261B2, “Substituted heterocyclic compounds and therapeutic uses thereof” (Bayer Aktiengesellschaft, priority 2020, dated 2026).
pIC50: −log10 of the molar value. Like-named read-outs stand apart in the source and are kept apart here.

Experiments:
Type in all cases: biochemical
[1] = target: T1, full-length human CSNK1A1 (Homo sapiens, UniProt P48729); assay: CSNK1A1 High ATP Assay (ADP-Glo, 1 mM ATP); details: Table 3, read-out: CSNK1A1 high ATP assay IC50 [mol/l] (median);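 further: 30 min kinase reaction at 22 °C with 100 µM peptide substrate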
T1 construct: N-terminal Glutathion-S-Transferase (GST) and full-length human CSNK1A1; purchased Life Technologies PV4174; host or cells: baculovirus infected insect cells
T1 sequence (P48729 whole entry): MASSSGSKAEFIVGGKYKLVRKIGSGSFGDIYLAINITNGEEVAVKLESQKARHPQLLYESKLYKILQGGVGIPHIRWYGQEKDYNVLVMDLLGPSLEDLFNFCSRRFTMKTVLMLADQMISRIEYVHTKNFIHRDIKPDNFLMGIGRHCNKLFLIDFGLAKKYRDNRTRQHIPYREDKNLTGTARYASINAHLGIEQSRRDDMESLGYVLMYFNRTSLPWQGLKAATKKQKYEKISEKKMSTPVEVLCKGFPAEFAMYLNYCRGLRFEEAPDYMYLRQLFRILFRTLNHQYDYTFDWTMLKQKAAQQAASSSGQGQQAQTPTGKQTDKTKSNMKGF
Protocol: CSNK1A1-inhibitory activity of compounds of the present invention in presence of 1 mM adenosine-tri-phosphate (ATP) was quantified employing the CSNK1A1-high-ATP-assay as described in the following paragraphs. In essence, the enzyme activity is measured by quantification of the adenosine-di-phosphate (ADP), which is generated as a co-product of the enzyme reaction, via the “ADP-Glo™ Kinase Assay” kit from the company Promega. This detection system works as follows: In a first step the ATP not consumed in the kinase reaction is quantitatively converted to cAMP employing an adenylate cyclase (“ADP-Glo-reagent”), then the adenylate cyclase is stopped and the ADP generated in the kinase reaction converted to ATP which generates in a luciferase-based reaction a glow-luminescence signal (“Kinase Detection Reagent”).
(§1) Recombinant fusion protein of N-terminal Glutathion-S-Transferase (GST) and full-length human CSNK1A1, expressed by baculovirus infected insect cells and purified via Glutathion affinity chromatography, was purchased from Life Technologies (product no. PV4174) and used as enzyme. As substrate for the kinase reaction the biotinylated peptide biotin-Ahx-KRRRAL-pS-VASLPGL (C-terminus in amide form) was used which can be purchased e.g. from the company Biosyntan (Berlin-Buch, Germany).
For the assay 50 nl of a 100 fold concentrated solution of the test compound in DMSO was pipetted into a white low volume 384-well microtiter plate (Greiner Bio-One, Frickenhausen, Germany), 2 μL of a solution of CSNK1A1 in aqueous assay buffer [50 mM HEPES pH 7.5, 10% (v/v) glycerol, 10 mM MgCl2, 50 mM NaCl, 1 mM dithiothreitol, 0.01% (w/v) bovine serum albumin, 0.01% (v/v) Triton X-100] were added and the mixture was incubated for 15 min at 22° C. to allow pre-binding of the test compounds to the enzyme before the start of the kinase reaction. […] The concentration of CSNK1A1 was adjusted depending of the activity of the enzyme lot and was chosen appropriate to have the assay in the linear range, a typical concentration is about 0.4 ng/μL. The reaction was stopped by the addition of 2.5 μL of “ADP-Glo-reagent” (1:1.5 fold diluted with water) and the resulting mixture was incubated at 22° C. for 1 h to convert the ATP not consumed in the kinase reaction completely […]. Subsequently 2.5 μL of the “kinase detection reagent” (1.2 fold more concentrated than recommended by the producer) were added, the resulting mixture was incubated at 22° C. for 1 h and then the luminescence measured with a suitable measurement instrument (e.g. Viewlux™ from Perkin-Elmer). The amount of emitted light was taken as a measure for the amount of ADP generated and thereby for the activity of the CSNK1A1.

[2] = target: T1, full-length human CSNK1A1; assay: CSNK1A1 Assay 2 (ADP-Glo, 1 μM ATP, substrate biotin-Ahx-KRRRAL-pS-VASLPGL); details: Table 3, read-out: CSNK1A1 Assay 2 IC50 [mol/l] (median)
Protocol: CSNK1A1-inhibitory activity of compounds of the present invention in presence of 1 μM adenosine-tri-phosphate (ATP) was quantified employing the CSNK1A1 assay as described in the following paragraphs. In essence, the enzyme activity is measured by quantification of the adenosine-di-phosphate (ADP), which is generated as a co-product of the enzyme reaction, via the “ADP-Glo™ Kinase Assay” kit from the company Promega. This detection system works as follows: In a first step the ATP not consumed in the kinase reaction is quantitatively converted to cAMP employing an adenylate cyclase (“ADP-Glo-reagent”), then the adenylate cyclase is stopped and the ADP generated in the kinase reaction converted to ATP which generates in a luciferase-based reaction a glow-luminescence signal (“Kinase Detection Reagent”).
as §1
For the assay 50 nl of a 100 fold concentrated solution of the test compound in DMSO was pipetted into a white 1536-well microtiter plate (Greiner Bio-One, Frickenhausen, Germany), 2 μL of a solution of CSNK1A1 in aqueous assay buffer [50 mM HEPES pH 7.5, 10% (v/v) glycerol, 10 mM MgCl2, 50 mM NaCl, 1 mM dithiothreitol, 0.01% (w/v) bovine serum albumin, 0.01% (v/v) Triton X-100] were added and the mixture was incubated for 15 min at 22° C. to allow pre-binding of the test compounds to the enzyme before the start of the kinase reaction. […] The concentration of CSNK1A1 was adjusted depending of the activity of the enzyme lot and was chosen appropriate to have the assay in the linear range, a typical concentrations are about 0.0375 ng/μL. The reaction was stopped by the addition of 2.5 μL of “ADP-Glo-reagent” (1:1.5 fold diluted with water) and the resulting mixture was incubated at 22° C. for 1 h to convert the ATP not consumed in the kinase reaction completely […]. Subsequently 2.5 μL of the “kinase detection reagent” (1.2 fold more concentrated than recommended by the producer) were added, the resulting mixture was incubated at 22° C. for 1 h and then the luminescence measured with a suitable measurement instrument (e.g. Viewlux™ from Perkin-Elmer). The amount of emitted light was taken as a measure for the amount of ADP generated and thereby for the activity of the CSNK1A1.

[3] = target: T2, wild-type Epidermal Growth Factor Receptor (EGFR) (Homo sapiens, UniProt P00533); assay: WT-EGFR Kinase Assay (TR-FRET, 2 mM ATP)
T2 construct: a fragment of human EGFR (amino acids R669 to A1210); made in house; host or cells: Sf9 insect cells
T2 sequence (P00533 669-1210): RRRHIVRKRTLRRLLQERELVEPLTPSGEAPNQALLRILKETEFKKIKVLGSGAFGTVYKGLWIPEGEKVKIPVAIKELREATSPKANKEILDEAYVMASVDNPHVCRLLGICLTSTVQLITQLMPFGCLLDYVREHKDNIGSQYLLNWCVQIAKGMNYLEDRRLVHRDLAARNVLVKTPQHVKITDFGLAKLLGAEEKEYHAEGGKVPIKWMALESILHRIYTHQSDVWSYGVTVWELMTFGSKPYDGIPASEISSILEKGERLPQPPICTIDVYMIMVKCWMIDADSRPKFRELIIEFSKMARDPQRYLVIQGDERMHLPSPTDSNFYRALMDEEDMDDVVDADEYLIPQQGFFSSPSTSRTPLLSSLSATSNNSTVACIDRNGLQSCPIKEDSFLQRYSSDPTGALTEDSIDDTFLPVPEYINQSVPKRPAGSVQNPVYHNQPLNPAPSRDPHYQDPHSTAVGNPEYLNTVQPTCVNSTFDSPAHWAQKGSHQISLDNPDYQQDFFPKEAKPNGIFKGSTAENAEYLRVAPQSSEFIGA
Description: Inhibitory activity of compounds of the present invention against wild-type Epidermal Growth Factor Receptor (EGFR) was quantified employing the TR-FRET based EGFR assay as described in the following paragraphs.
Recombinant fusion protein of N-terminal Glutathion-S-Transferase (GST) and a fragment of human EGFR (amino acids R669 to A1210), expressed in Sf9 insect cells and purified via affinity chromatography using Glutathion Sepharose as described above, was used as kinase. As substrate for the kinase reaction the biotinylated peptide biotin-Ahx-[…] (C-terminus in amide form) was used which can be purchased e.g. form the company Biosynthan GmbH (Berlin-Buch, Germany).
For the assay 50 nl of a 100 fold concentrated solution of the test compound in DMSO was pipetted into either a black low volume 384 well microtiter plate or a black 1536 well microtiter plate (both Greiner Bio-One, Frickenhausen, Germany), 2 μL of a solution of EGFR in aqueous assay buffer [50 mM Hepes pH 7.0, 10 mM MgCl2, 1 mM dithiothreitol, 0.5 mM EGTA, 0.3 mM activated sodium ortho-vanadate, 0.005% (w/v) bovine serum albumin, 0.005% (v/v) Tween-20] were added and the mixture was incubated for 15 min at 22° C. to allow pre-binding of the test compounds to the enzyme before the start of the kinase reaction. […] The concentration of EGFR was adjusted depending of the activity of the enzyme lot and was chosen appropriate to have the assay in the linear range, typical concentration was 7.6 pg/μL. The reaction was stopped by the addition of 3 μL of a solution of HTRF detection reagents (83.3 nM streptavidine-XL665 [Cisbio Bioassays, Codolet, France] and 1.67 nM PT66-Tb-Cryptate, a terbium-cryptate labelled anti-phospho-tyrosine antibody from Cisbio Bioassays [instead of the PT66-Tb-cryptate PT66-Eu-Chelate from Perkin Elmer can also be used]) in an aqueous EDTA-solution (133.3 mM EDTA, 0.2% (w/v) bovine serum albumin in 50 mM HEPES pH 7.5).
The resulting mixture was incubated 1 h at 22° C. to allow the binding of the biotinylated phosphorylated peptide to the streptavidine-XL665 and the PT66-Tb-Cryptate. Subsequently the amount of phosphorylated substrate was evaluated by measurement of the resonance energy transfer from the PT66-Tb-Cryptate to the streptavidine-XL665. Therefore, the fluorescence emissions at 620 nm and 665 nm after excitation at 337 nm were measured in a HTRF reader, e.g. a Pherastar (BMG Labtechnologies, Offenburg, Germany) or a Viewlux (Perkin-Elmer). The ratio of the emissions at 665 nm and at 622 nm was taken as the measure for the amount of phosphorylated substrate.

[4] = EGFR Wildtyp 2 mM ATP IC50 [mol/l] (median), Table 4

SMILES | pIC50 [1] | pIC50 [2] | pIC50 [3, 4] | pIC50 ([3]; read-out: EGFR Wildtyp 2 mM ATP IC50 [mol/l] (median), Table 4)
O=C(Nc1cc(-c2[nH]c3c(OCC(F)F)ccnc3c2-c2ccccn2)ccn1)C(CC(F)F)c1ccc(F)cc1 (single isomer, unassigned) [Example 76, (2R or S)—N-{4-[7-(2,2-difluoroethoxy)-3-(pyridin-2-yl)-1H-pyrrolo[3,2-b]pyridin-2-yl]pyridin-2-yl}-4,4-difluoro-2-(4-fluorophenyl)butanamide] | 8.53 | 8.53 | < 4.70 | 
O=C(Nc1cc(-c2[nH]c3c(OCC(F)F)ccnc3c2-c2ccccn2)ccn1)C(CC(F)F)c1ccc(F)cc1 (single isomer, unassigned) [Example 77, (2R or S)—N-{4-[7-(2,2-difluoroethoxy)-3-(pyridin-2-yl)-1H-pyrrolo[3,2-b]pyridin-2-yl]pyridin-2-yl}-4,4-difluoro-2-(4-fluorophenyl)butanamide] | 8.14 | 8.14 |  | < 4.70
O=C(Nc1cc(-c2[nH]c3c(OCC(F)F)ccnc3c2-c2ccccn2)ccn1)C(CC(F)F)c1ccc(F)cc1 (racemic) [Example 75, (2RS)—N-{4-[7-(2,2-difluoroethoxy)-3-(pyridin-2-yl)-1H-pyrrolo[3,2-b]pyridin-2-yl]pyridin-2-yl}-4,4-difluoro-2-(4-fluorophenyl)butanamide] | 8.36 | 8.36 | < 4.70 | 
